Assay results published in a melting point compilation (Tetko et al.; mined from patent text by program, amines drawn as free bases though some values may be those of a salt).

SMILES | melting point [°C]
COc1cc(C(=O)N2Cc3ccccc3Cc3ccccc32)ccc1NC(=O)c1ccc(Cl)cc1Cl | 212 to 214
COC(=O)c1cccnc1N(C)C1CCN(Cc2ccccc2)CC1 | 109 to 110
CS(=O)(=O)c1ccc(Oc2cc(OCc3ccccc3)c3[nH]c(C#N)cc3c2)cc1 | 209 to 210
O=C(Cc1c2c(nn1-c1ccccc1)c(=O)[nH]c1ccccc12)N1CCN(Cc2ccccc2)CC1 | 283 to 285
N#Cc1c(N2CCCC2)cc(-c2ccccc2)c2c1C(=O)c1ccccc1-2 | 166 to 168
O=C(CN1CCN(c2ccc(NC(=O)c3ccccc3-c3ccc(C(F)(F)F)cc3)cc2)CC1)NCc1cccc(-c2ccccc2)c1 | 165 to 167
NC(=O)[C@H]1CCCCCC[C@H](CS)C(=O)N1 (relative stereo) | 185 to 192
CCN(CC)C(=O)Nc1ccc(Cn2c(=O)n(C3CCCCC3)c3cc(Cl)ccc32)c(OC)c1 | 190
C=C(C)c1c2c(c(C)c(C)c1N1CCN(c3ccc(OC)cc3)CC1)OC(C)(C)C2 | 174 to 175
CCOC(=O)Oc1ccc(S(=O)(=O)N2c3c(C)cccc3-n3cccc3C2CC)cc1 (configuration not stated) | 104
O=c1oc(C(Cl)Cl)nc2c(C(F)(F)F)cccc12 | 179
CN(Cc1cn(C23CC4CC(CC(C4)C2)C3)nn1)Cc1cccs1 | 66 to 68
O=C1CN(c2ccc(I)cc2)S(=O)(=O)N1 | 191 to 193
N#Cc1cc(O)n(-c2ccccc2)n1 | 190
Cc1ccccc1OCC(O)CN(CCOc1ncccc1C(N)=O)Cc1ccccc1 (configuration not stated) | 109 to 112
Cc1cc(C)c2nccn2n1 | 70 to 74
CC(C)N(CCN1C(=O)/C(=N/NC(=O)NCc2ccccc2)c2ccccc21)C(C)C | 164 to 165
O=C(NS(=O)(=O)Cl)Oc1c(-c2ccccc2)cccc1-c1ccccc1 | 159 to 162
Cc1cc(C(=O)NCO)ncc1C(c1c(F)ccc(F)c1F)S(=O)(=O)CCC(F)(F)F (configuration not stated) | 146 to 148
COc1ccc(-n2nc(Sc3ccc(C(F)(F)F)cc3)c(C)c(C#N)c2=O)cc1 | 151 to 155
CCOc1nc(C)nc2oc(-c3ccco3)nc12 | 104 to 106
CC(C)N(C(=O)CNc1ccccc1N)c1ccccc1 | 110 to 112
CN1Cc2cc(C(c3ccccc3)n3ccnc3)ccc2NC1=O (configuration not stated) | 174
CCN(CC)c1ccc(-c2cc(-c3ccc(C(=O)O)cc3)ccc2CCCNC(C)C)cc1C(C)(C)C | 253
C=CCc1c(O)c(C)cc2c1C(C)(C)CC1(CC(C)(C)c3c(cc(C)c(O)c3CC=C)O1)O2 | 95 to 97

SMILES | melting point [°C]
CCCCCCCCCCCCCCCCCC(=O)NC(C)C(=O)NC(CCC(=O)NC(C=CCCC(=O)O)C(=O)O)C(=O)O (configuration not stated) | 200
O=C(Nc1ccc(SC(F)(F)F)cc1)c1ccc2c(c1O)CCCC2 | 167
CC(C)(CCn1ccnc1)NCC(O)c1ccc(O)c(CO)c1 (configuration not stated) | 135 to 137
COc1cc(-n2cnc3cc(-c4ccc(Cl)cc4)sc3c2=O)ccc1OCCN1CCCC1 | 214 to 215
CN(C)C(=O)C=C(N(C(N)=O)c1cc(F)c(C#N)cc1F)C(F)(F)F | 198
O=C(O)C(Cc1cccc2c1CCCC2)Cc1cccc2c1CCCC2 | 144 to 146
O=C(NO)[C@H](CNS(=O)(=O)c1ccc(OCc2ccc(Cl)c(Cl)c2)cc1)N1CCCCC1 | 166
COc1ccc2c(c1)C(C(=O)Nc1c(C(C)C)cccc1C(C)C)c1cccnc1CO2 (configuration not stated) | 180 to 181
NS(=O)(=O)c1ccc(-c2c(-c3ccccc3)noc2COCCS(=O)(=O)CCO)cc1 | 81
CCOC(=O)Cn1ncc(-c2ccccc2)c1-c1ccc(O)cc1 | 130 to 135
CSc1ccc(CC(=O)NC(NC(Cc2ccccc2C)=NC#N)C(C)(C)C)cc1 (configuration not stated) | 201 to 202
CN1CCC(c2c[nH]c3ccc(CCS(N)(=O)=O)cc23)CC1 | > 95
COC(=O)C=Cc1ccc(Cl)c(C(F)(F)F)c1 | 71 to 73
CC(C)(C)OC(=O)Nc1cc(OC(C)(C)C)c(I)cc1[N+](=O)[O-] | 94
COc1cc([N+](=O)[O-])c2ncc(C)cc2c1 | 173 to 175
OC(COC1CCCCO1)(Cn1cncn1)c1ccc(Cl)cc1 (configuration not stated) | 70
Cc1ccccc1Cn1c(=O)c2c(N3CCN(C)CC3)cc(Cl)cc2n(Cc2ccccc2)c1=O | 92 to 95
Cc1cc(O)ccc1-c1ccc(C=NO)c(Cl)c1 | 169 to 171
COC(=O)CCc1ccc(-n2ncn(-c3ccc(C(=N)NC(=O)OC)cc3)c2=O)cc1 | 296 to 298
O=C(O)c1cc(OCc2ccccc2)c(OCc2ccccc2)c(OCc2ccccc2)c1 | 194 to 195
COC(=O)CCc1cc2c(c(C(C)(C)C)c1)OC(=O)C2c1cc(C)ccc1C (configuration not stated) | 80
Cc1ccc(S(=O)(=O)OC2=C(Br)C(=O)c3ccc4c(c3C2=O)CCC(C)(C)O4)cc1 | 168 to 170
O=C(NCc1ccc(Cl)cc1)c1cn(CCN2CCOCC2)c2ccc(C#CCO)cc2c1=O | 215 to 218
O=C(c1c[nH]c2nc(Cl)ccc12)N1CCN2CCC1CC2 | 228 to 229
CC(=O)N(C(C)=O)c1c(Cl)c(C)nn1C(CCN1C(=O)c2ccccc2C1=O)=NOS(=O)(=O)c1ccc(C)cc1 | 143 to 147

SMILES | melting point [°C]
CC1CC2C3CCC4CC(O)CCC4(C)C3C(=O)CC2(C)C1C1(C)OCCO1 (configuration not stated) | 122 to 124
Cn1cc(Nc2nc(N3CCOCC3)nc(-n3c(C(F)F)nc4ccccc43)n2)cn1 | 225 to 226
CCCCNc1cc(CNC(C)=O)cc(S(N)(=O)=O)c1Oc1ccccc1 | 190 to 191
COc1c(Cc2ccccc2)cc(C(N)=O)c2ccccc12 | 199 to 201
Fc1ccc(Nc2cc(Cl)nc(NN=Cc3ccc(OC(F)(F)F)cc3)n2)cc1C(F)(F)F | 162 to 164
CCc1ccc(-c2onc3ccccc23)cc1 | 42 to 42.5
CCCc1nc2c(N)nc3ccccc3c2n1CC1(O)CCOC1 (configuration not stated) | 201 to 203
CC(C)c1ccc(N(Cc2ccc(N(C)C)cc2)C(=O)C2CCS(=O)(=O)c3ccccc32)cc1 (configuration not stated) | 185 to 187
O=C1Nc2cccnc2N(C(=O)N2CCCC(CCN3CCCC3)C2)c2cc(Cl)ccc21 (configuration not stated) | 136 to 139
CCOC(=O)C1=C(COCc2nccn2C)NC(C)=C(C(=O)OC)C1c1ccccc1Cl (configuration not stated) | 137 to 138
COc1nc(NC(COC(=O)NC(C)C)C(C)(C)C)nc(OC)c1[N+](=O)[O-] (configuration not stated) | 110
O=C1c2cc(F)ccc2-n2c1nc1cccc(F)c1c2=O | 323 to 325
CC(=O)OCCCCCCOc1ccccc1C(=O)Nc1ccc(C(=O)N2CCCCc3ccccc32)cc1 | 145 to 146
COC[C@@H]1Cc2ccccc2N1C(=O)OC(C)(C)C | 173 to 175
C=CCNc1cc(C(=O)OCC)nc2cn[nH]c12 | 140 to 145
CCc1cc2cc(OC)c(Cl)c(Cl)c2s1 | 73 to 74.5
CC1=NN(c2cc(Cl)c(C(=O)c3ccc(Cl)cc3)c(Cl)c2)C(=O)NC1 | 257 to 259
CN(c1cc2c3c(c1)CCCC3CCC2)c1ncc(C(=O)O)cn1 | 255 to 256
c1cc(OCCCc2nnn[nH]2)cc(OCc2ccc3ccccc3n2)c1 | 147 to 149
COC(=O)c1ccc(C2(C(=O)Oc3ccc(C(=O)NO)cc3)CCCCC2)cc1 | 129 to 131
Fc1ccc(-c2cc(Cl)c3cc(Cl)ccc3n2)cc1 | 150 to 156
CCOC(=O)C=C(C)Nc1ccccc1N | 73 to 81
COC(=O)Nc1ccc(NC(=O)CBr)c([N+](=O)[O-])c1 | 160 to 162
O=C(Nc1ccc(C(=O)Oc2ccccc2)c(Cl)c1)c1ccccc1 | 126 to 128
O=C(Nc1ccc2oc3c(c2c1)CCCC3)c1ccc([N+](=O)[O-])cc1 | 279 to 280

SMILES | melting point [°C]
CCOC(=O)c1c(O)c2cc(Cl)cnc2n(Cc2ccccc2)c1=O | 141 to 142
CC(C)Nc1cc(Cl)nc(Cl)n1 | 69 to 70
Cn1nnc(-c2cc3c(Oc4ccc(Cl)cc4)cncc3s2)n1 | 131 to 133
CCOC(=O)c1ncn2c1nc(N1CCOCC1)c1ccccc12 | 165
CCC(C)(C)NCC(O)c1ccc(O)c(O)c1OC (configuration not stated) | 172 to 174
S=c1[nH]ccn1C1CCc2ccccc2C1 (configuration not stated) | 233 to 234
Cn1c(=O)cc(C(F)(F)F)[nH]c1=O | 235 to 237
Cc1sc(S(=O)(=O)NC(C)(C)CO)cc1NC(=O)c1cnn2c(C(F)(F)F)cc(-c3ccc(C(F)(F)F)cc3)nc12 | 225
O=C(NCCc1cccs1)c1cc(Cl)ccc1Cl | 99 to 100
COc1cc(NNc2nccc(Nc3ccc4nc(C)[nH]c4c3)n2)cc(OC)c1OC | 179
CCN1c2ncc(CCc3cncnc3)cc2C(=O)N(C)c2cccnc21 | 142 to 143
CC(C)(C)OC(=O)N1CCN(O)CC1 | 95 to 97
COc1cc(CCCC2OC(=O)NC2=O)ccc1O (configuration not stated) | 147 to 148
N#Cc1ccc(N(Cc2ccc(Br)cc2)n2cnnc2)cc1-c1ccc(O)cc1 | 222 to 224
CC(=O)c1ccc(N2CCN(c3ccncc3)CC2)cc1 | 176 to 177
CN1CCN(C(c2ccc(Cl)cc2)c2cccc(C=CC(=O)O)c2)CC1 (configuration not stated) | 131 to 141
O=C(c1ccc(Cl)cc1)c1ccc2[nH]c(=O)nc(-c3cccc(Cl)c3)c2c1 | 256
CC1CN(Cc2ccc(Cl)nc2)C(=C[N+](=O)[O-])N1 (configuration not stated) | 170 to 174
CC12CCC(O)CC1=CCC1C2C(O)CC2(C)C1CCC21OCCO1 (configuration not stated) | 123 to 125
CN(C)C=C1N=C(c2ccccc2Cl)c2cc(Cl)ccc2N(C)C1=O | 199 to 200
COc1ccc(OC)c(C2(OC)C(=O)Nc3ccc(Cl)cc32)c1 (configuration not stated) | 180
O=C(O)c1ccc(OCCNC(=O)C2Cc3ccccc3N2S(=O)(=O)c2ccc(-c3ccc(F)cc3)cc2)c(F)c1 (configuration not stated) | 118
